{"source": "ChEMBL document CHEMBL3046482", "about": "“Facile synthesis of furoquinoline and effects on radical-induced oxidation of DNA” (Med Chem Res, 2013)", "type_in_all_cases": "functional", "key": {"[1]": {"experiment": "Antioxidant activity assessed as decrease in AAPH-induced oxidation of DNA measured TBARS production at 400 uM after 15 min by spectrophotometric analysis"}, "[2]": {"experiment": "Antioxidant activity assessed as decrease in hydroxyl radical-induced oxidation of DNA measured TBARS production at 400 uM after 30 min by spectrophotometric analysis relative to control", "parameters": "scale not given: the % may be the effect or the level left"}, "[3]": {"experiment": "Antioxidant activity assessed as decrease in Cu2+/GSH-induced oxidation of DNA measured TBARS production at 400 uM after 90 min by spectrophotometric analysis relative to control", "parameters": "scale not given: the % may be the effect or the level left"}, "[4]": {"experiment": "Antioxidant activity assessed as decrease in AAPH-induced oxidation of DNA measured TBARS production at 100 to 400 uM after 15 min by spectrophotometric analysis"}}, "note": "The source made the active and inactive calls. The calls are words filed in the database; no cut-off is given here.", "data": [{"molecule": "Cc1c2c(nc3ccccc13)OCC2", "values": [{"measurement": "Activity", "setting": "[1]", "value": "inactive"}, {"measurement": "Activity", "setting": "[2]", "value": 95.1, "unit": "%"}, {"measurement": "Activity", "setting": "[3]", "value": 96.6, "unit": "%"}]}, {"molecule": "Cc1c2c(nc3cc(O)ccc13)OCC2", "values": [{"measurement": "Activity", "setting": "[4]", "value": "Active"}, {"measurement": "Activity", "setting": "[2]", "value": 95.1, "unit": "%"}, {"measurement": "Activity", "setting": "[3]", "value": 93.5, "unit": "%"}]}, {"molecule": "Cc1c2c(nc3c(O)cccc13)OCC2", "values": [{"measurement": "Activity", "setting": "[2]", "value": 90.8, "unit": "%"}, {"measurement": "Activity", "setting": "[3]", "value": 92.2, "unit": "%"}]}, {"molecule": "Cc1c2c(nc3ccc(O)cc13)OCC2", "values": [{"measurement": "Activity", "setting": "[2]", "value": 88.4, "unit": "%"}, {"measurement": "Activity", "setting": "[3]", "value": 92.9, "unit": "%"}]}]}
